Experimental data as given in patent EP4631940A1, “COMPOUND TARGETING PAN-KRAS PROTEIN DEGRADATION AGENT AND USE THEREOF” (Betta Pharmaceuticals Co., Ltd., priority 2022, dated 2024).

Experiments:
in vitro [1] = details: rat, microsomes
KRAS G12D [2] = target: T1, KRAS G12D (Homo sapiens, UniProt P01116, G12D)
[3] = Phase II metabolic stability in liver microsomes (UDPGA); format: in vitro ADME, Human; details: for 60 minutes remaining percentage % Human: 0.5 mg/mL liver microsomes, Alamethicin; for metabolism by UGT in human liver microsomes: 60 min
Procedure: (§1) Example 6 Study on Phase II Metabolic Stability of Compounds in Human, Rat, Mouse, and Dog Liver Microsomes
(§2) Experimental Method: A diluted solution containing 0.5 mg/mL liver microsomes with K-buffer and MgCl2 was prepared: Table 8
(§3) 358 µL of the diluted liver microsome solution prepared in Table 8 above was added to the pre-set wells of the incubation plate, labeled as the incubation plate. 2 µL of compound working solution (400 µM) (final concentration of DMSO ≤ 0.5%) was added. The incubation plate was placed in a 37°C constant temperature shaker and pre-incubated for 5-10 min. Then, 40 µL of UDPGA (20 mM) was added to the incubation plate to initiate the reaction, and timing started. At each predetermined time point (0, 5, 15, 60 min), 50 µL of samples were taken from the incubation plate and added to the precipitation plate containing 200 µL of internal standard. Samples were mixed thoroughly, centrifuged at 4°C and 5000 rpm for 10 minutes. The supernatant after centrifugation was added to pre-added ultrapure water at an appropriate ratio, mixed thoroughly on a shaker at room temperature, and subjected to LC-MS/MS analysis.
(§4) Data processing: The peak areas of the analyte and the internal standard in samples were measured at different time points. The peak area ratio of the analyte to the internal standard at non-zero time points compared to the peak area ratio of the analyte to the internal standard in the 0 min sample was used to calculate the remaining percentage of the parent drug.

H358 = assay: Cell proliferation experiment (CellTiter-Glo); format: cell-based; details: Homo sapiens, NCI-H358; H358, KRAS mutation type G12C; 96 h incubation
[4] = Phase II metabolic stability in liver microsomes (UDPGA); format: in vitro ADME; details: 0.5 mg/mL liver microsomes, Alamethicin
Procedure: as §1, §2, §3, §4

KRAS G12D [5] = target: T1, KRAS G12D; assay: cell-based; details: AGS
in vitro [6] = details: human, microsomes
SW620 = assay: Cell proliferation experiment (CellTiter-Glo); format: cell-based; details: Homo sapiens, SW-620, 96 h, read-out: IC50(nM) SW620
in vitro [7] = details: mouse, microsomes
AGS = assay: Cell proliferation experiment (CellTiter-Glo); format: cell-based; details: Homo sapiens, AGS, 96 h, read-out: IC50(nM) AGS
in vitro [8] = details: dog, microsomes
[9] = PK study in ICR mice (whole blood); format: in vivo; details: Female ICR mice, IV 1 mg/kg; for AUC(0-t) / half-life / C0: mouse; for C0: read-out: C0
Procedure: Example 8 PK Study of Compound in ICR Mice (whole blood)
The compound was mixed with the vehicle (10% DMSO / 5% Solutol HS 15 / 85% saline), vortexed, and sonicated to prepare a clear solution at 0.2 mg/mL. Female ICR mice aged 6 to 7 weeks (non-fasted) were intravenously administered the compound. Whole blood was collected at specified time points. Drug concentration was analyzed by LC-MS/MS, and pharmacokinetic parameters were calculated using Phoenix WinNonlin software (Pharsight Corporation, USA). Table 11 Mouse PK Data for Intravenous Compound Monotherapy

PK59 = assay: Cell proliferation experiment (CellTiter-Glo); format: cell-based; details: PK-59; PK59, KRAS mutation type G12D; 96 h incubation

T1 sequence (P01116 1-188 isoform P01116-2 G12D): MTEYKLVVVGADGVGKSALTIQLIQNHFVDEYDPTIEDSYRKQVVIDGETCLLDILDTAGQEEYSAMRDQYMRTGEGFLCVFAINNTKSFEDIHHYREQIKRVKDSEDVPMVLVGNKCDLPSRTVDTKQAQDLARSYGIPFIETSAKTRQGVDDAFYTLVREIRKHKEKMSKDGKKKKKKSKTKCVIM

Row | Structure (SMILES) | microsomal CLint (in vitro [1]) [µL/min/mg] | DC50 (KRAS G12D [2]) [nM] | 60 minutes remaining percentage % Human [3] [%] | metabolism by UGT in human liver microsomes [3] | IC50 (H358) [nM] | 60 minutes remaining percentage % Dog [4] [%] | 60 minutes remaining percentage % Mouse [4] [%] | 60 minutes remaining percentage % Rat [4] [%] | Dmax (KRAS G12D [5]) [%] | microsomal CLint (in vitro [6]) [µL/min/mg] | IC50 (SW620) [nM] | microsomal CLint (in vitro [7]) [µL/min/mg] | IC50 (AGS) [nM] | microsomal CLint (in vitro [8]) [µL/min/mg] | Cl_obs [9] [mL/min/kg] | Vss_obs [9] [L/kg] | AUC(0-t) [9] [ng·h/mL] | half-life [9] [h] | C0 [9] [ng/mL] | IC50 (PK59) [nM]
1 | CCc1c(F)ccc2cc(O)cc(-c3ncc4c(N5CCC[C@@](C)(O)C5)nc(OCC5(CN6CCC(COc7ccc(-c8cn([C@H](C(=O)N9C[C@H](O)C[C@H]9C(=O)N[C@@H](C)c9ccc(-c%10scnc%10C)cc9)C(C)C)nn8)cc7)CC6)CC5)nc4c3F)c12 [Compound 69] | 4.6 | 25 | 98.4 | not metabolized or are minimally metabolized | 42 | 90.6 | 92 | 99 | 95 | 9.8 | 34 | 7.9 | 14 | 16.4 |  |  |  |  |  | 
2 | CCc1c(F)ccc2cc(O)cc(-c3ncc4c(N5CCC[C@@](C)(O)C5)nc(OCC5(CN6CCC7(CC6)CC(c6cn([C@H](C(=O)N8C[C@H](O)C[C@H]8C(=O)N[C@@H](C)c8ccc(-c9scnc9C)cc8)C(C)C)nn6)C7)CC5)nc4c3F)c12 [Compound 71] | 1.1 | 20 | 94.6 | not metabolized or are minimally metabolized | 39 | 108 | 93 | 75.4 | 95 | 5.9 | 85 | 9.8 | 18 | 6.5 | 16.3 | 1.45 | 1030 | 6.08 | 5560 | 
3 | CCc1c(F)ccc2cc(O)cc(-c3ncc4c(N5CCC[C@@](C)(O)C5)nc(OC[C@]56CCCN5[C@@H](COC(=O)N5CCC7(CC5)CC(C(=O)N[C@H](C(=O)N5C[C@H](O)C[C@H]5C(=O)N[C@@H](C)c5ccc(-c8scnc8C)cc5)C(C)(C)C)C7)CC6)nc4c3F)c12 [Compound 88] | 10.1 |  |  |  | 90 |  |  |  |  | 13.4 | 199 | 24.5 | 33 | 13.3 | 4.03 | 0.780 | 4110 | 5.61 | 5000 | 
4 | CCc1c(F)ccc2cc(O)cc(-c3ncc4c(N5CCC[C@@](C)(O)C5)nc(OCC5(CN6CCC(OCc7ccc(-c8cn([C@H](C(=O)N9C[C@H](O)C[C@H]9C(=O)N[C@@H](C)c9ccc(-c%10scnc%10C)cc9)C(C)C)nn8)cc7)CC6)CC5)nc4c3F)c12 [Compound 93] | 10.9 | 11 |  |  | 20 |  |  |  | 95 | 23.5 | 86 | 8.3 | 6.8 | 28.5 |  |  |  |  |  | 
5 | CCc1c(F)ccc2cc(O)cc(-c3ncc4c(N5CCC[C@@](C)(O)C5)nc(OCC5(CN6CCC(Oc7ccc(-c8cn([C@H](C(=O)N9C[C@H](O)C[C@H]9C(=O)N[C@@H](C)c9ccc(-c%10scnc%10C)cc9)C(C)C)nn8)nc7)CC6)CC5)nc4c3F)c12 [Compound 117] | 11.3 | 7.5 |  |  |  |  |  |  | 95 | 8.8 | 47 | 10.1 | 13 | 6.6 |  |  |  |  |  | 18.5
6 | C=C1CN2[C@H](COCc3ccc(-c4cn([C@H](C(=O)N5C[C@H](O)C[C@H]5C(=O)N[C@@H](C)c5ccc(-c6scnc6C)cc5)C(C)C)nn4)cc3)CC[C@@]2(COc2nc(N3CCC[C@@](C)(O)C3)c3cnc(-c4cc(O)cc5ccc(F)c(CC)c45)c(F)c3n2)C1 [Compound 122] | 8.5 | 22 | 76.9 |  |  | 99.4 | 105 | 96.5 | 95 | 46.4 | 87 | 24.8 | 28 | 53 |  |  |  |  |  | 
7 | CCc1c(F)ccc2cc(O)cc(-c3ncc4c(N5CCC[C@@](C)(O)C5)nc(OCC5(CN6CCC(c7ccc(-c8cn([C@H](C(=O)N9C[C@H](O)C[C@H]9C(=O)N[C@@H](C)c9ccc(-c%10scnc%10C)cc9)C(C)C)nn8)cc7)CC6)CC5)nc4c3F)c12 [Compound 133] | 7.2 | 17 |  |  | 48 |  |  |  | 95 | 7.4 | 74 | 8 | 13 | 9.3 | 14.2 | 2.49 | 1200 | 5.77 | 2840 | 
8 | CCc1c(F)ccc2cc(O)cc(-c3ncc4c(N5CCC[C@@](C)(O)C5)nc(OCC5(CN6CCC(Oc7cc(-c8cn([C@H](C(=O)N9C[C@H](O)C[C@H]9C(=O)N[C@@H](C)c9ccc(-c%10scnc%10C)cc9)C(C)C)nn8)ccn7)CC6)CC5)nc4c3F)c12 [Compound 136] | 8 | 14 |  |  | 6.6 |  |  |  | 95 | 19.6 | 53 | 22.1 | 10 | 20.8 |  |  |  |  |  | 
9 | CCc1c(F)ccc2cc(O)cc(-c3ncc4c(N5CCC[C@@](C)(O)C5)nc(OCC5(CN6CCN(C78CC(c9cn([C@H](C(=O)N%10C[C@H](O)C[C@H]%10C(=O)N[C@@H](C)c%10ccc(-c%11scnc%11C)cc%10)C(C)C)nn9)(C7)C8)CC6)CC5)nc4c3F)c12 [Compound 149, (2S,4R)-1-((S)-2-(4-(3-(4-((1-(((7-(8-ethyl-7-fluoro-3-hydroxynaphthalen-1-yl)-8-fluoro-4-((R)-3-hydroxy-3-methylpiperidin-1-yl)pyrido[4,3-d]pyrimidin-2-yl)oxy)methyl)cyclopropyl)methyl)piperazin-1-yl)bicyclic[1.1.1]pent-1-yl)-1H-1,2,3-triazol-1-yl)-3-methylbutanoyl)-4-hydroxy-N-( (S)-1-(4-(4-methylthiazol-5-yl)phenyl)ethyl)pyrrolidine-2-carboxamide] |  | 7.6 |  |  |  |  |  |  | 95 |  |  |  | 15 |  |  |  |  |  |  | 57
10 | CCc1c(F)ccc2cc(O)cc(-c3ncc4c(N5CCC[C@@](C)(O)C5)nc(OCC5(CN6CCC(Oc7ccc(-c8cn([C@H](C(=O)N9C[C@H](O)C[C@H]9C(=O)N[C@@H](CO)c9ccc(-c%10ccnn%10CC)cc9)C(C)C)nn8)cn7)CC6)CC5)nc4c3F)c12 [Compound 160] |  | 2 |  |  | 17 |  |  |  | 95 |  | 88 |  | 14 |  |  |  |  |  |  | 19.5
